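Exposure lasted 48 hours, with cells grown in 96-well plates and compounds tested at five concentrations. Definition used: TGI = concentration required for complete inhibition of growth.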
How the values were obtained:
Assay in all cases: NCI-60 cell line screen, 48 h
CAKI-1 renal = tested on: CAKI-1 renal
NCI-H460 lung = tested on: NCI-H460 lung
786-0 renal = tested on: 786-0 renal
A549 NSCLC = tested on: A549 NSCLC
MDA-MB-435 = tested on: MDA-MB-435
NCI-H226 lung = tested on: NCI-H226 lung
TK-10 renal = tested on: TK-10 renal
HS 578T breast = tested on: HS 578T breast
SF-539 CNS = tested on: SF-539 CNS
SR leukemia = tested on: SR leukemia
SNB-75 CNS = tested on: SNB-75 CNS
RXF 393 renal = tested on: RXF 393 renal
SF-295 CNS = tested on: SF-295 CNS
A498 renal = tested on: A498 renal
UACC-62 melanoma = tested on: UACC-62 melanoma
CCRF-CEM leukemia = tested on: CCRF-CEM leukemia
ACHN renal = tested on: ACHN renal
HOP-62 NSCLC = tested on: HOP-62 NSCLC
K-562 leukemia = tested on: K-562 leukemia
LOX IMVI melanoma = tested on: LOX IMVI melanoma
COLO 205 colon = tested on: COLO 205 colon
M14 melanoma = tested on: M14 melanoma
MCF7 breast = tested on: MCF7 breast
HOP-92 NSCLC = tested on: HOP-92 NSCLC
DU-145 prostate = tested on: DU-145 prostate
HCT-116 colon = tested on: HCT-116 colon
HL-60(TB) leukemia = tested on: HL-60(TB) leukemia
NCI-H522 lung = tested on: NCI-H522 lung
HCT-15 colon = tested on: HCT-15 colon
U251 CNS = tested on: U251 CNS
SN12C renal = tested on: SN12C renal
KM12 colon = tested on: KM12 colon
HT29 colon = tested on: HT29 colon
HCC-2998 colon = tested on: HCC-2998 colon
PC-3 prostate = tested on: PC-3 prostate
SK-MEL-28 melanoma = tested on: SK-MEL-28 melanoma
OVCAR-4 ovarian = tested on: OVCAR-4 ovarian
RPMI-8226 leukemia = tested on: RPMI-8226 leukemia
MALME-3M melanoma = tested on: MALME-3M melanoma
SW-620 colon = tested on: SW-620 colon
SK-MEL-2 melanoma = tested on: SK-MEL-2 melanoma
MDA-N = tested on: MDA-N
OVCAR-5 ovarian = tested on: OVCAR-5 ovarian
NCI-H23 lung = tested on: NCI-H23 lung
UACC-257 melanoma = tested on: UACC-257 melanoma
IGROV1 ovarian = tested on: IGROV1 ovarian
OVCAR-3 ovarian = tested on: OVCAR-3 ovarian
SNB-19 CNS = tested on: SNB-19 CNS
T-47D breast = tested on: T-47D breast
NCI/ADR-RES ovarian = tested on: NCI/ADR-RES ovarian
SF-268 CNS = tested on: SF-268 CNS
SK-MEL-5 melanoma = tested on: SK-MEL-5 melanoma
EKVX NSCLC = tested on: EKVX NSCLC
OVCAR-8 ovarian = tested on: OVCAR-8 ovarian
MDA-MB-231 breast = tested on: MDA-MB-231 breast
MOLT-4 leukemia = tested on: MOLT-4 leukemia
SK-OV-3 ovarian = tested on: SK-OV-3 ovarian
UO-31 renal = tested on: UO-31 renal

`O=C1NCC2(CCNCC2)N1c1ccccc1` showed a TGI (CAKI-1 renal) of over 100 µM, a TGI (NCI-H460 lung) of over 100 µM and a TGI (786-0 renal) of over 100 µM. For the same compound, the TGI (A549 NSCLC) was over 100 µM, the TGI (MDA-MB-435) was over 100 µM and the TGI (NCI-H226 lung) was over 100 µM. It also gave a TGI (TK-10 renal) of over 100 µM, a TGI (HS 578T breast) of over 100 µM and a TGI (SF-539 CNS) of over 100 µM. It also gave a TGI (SR leukemia) of over 100 µM, a TGI (SNB-75 CNS) of over 100 µM and a TGI (RXF 393 renal) of over 100 µM. The TGI (SF-295 CNS) was over 100 µM, the TGI (A498 renal) was over 100 µM and the TGI (UACC-62 melanoma) was over 100 µM. It also gave a TGI (CCRF-CEM leukemia) of over 100 µM, a TGI (ACHN renal) of over 100 µM and a TGI (HOP-62 NSCLC) of over 100 µM. The TGI (K-562 leukemia) was over 100 µM, the TGI (LOX IMVI melanoma) was over 100 µM and the TGI (COLO 205 colon) was over 100 µM. It also gave a TGI (M14 melanoma) of over 100 µM, a TGI (MCF7 breast) of over 100 µM and a TGI (HOP-92 NSCLC) of over 100 µM. The TGI (DU-145 prostate) was over 100 µM, the TGI (HCT-116 colon) was over 100 µM and the TGI (HL-60(TB) leukemia) was over 100 µM. For the same compound, the TGI (NCI-H522 lung) was over 100 µM, the TGI (HCT-15 colon) was over 100 µM and the TGI (U251 CNS) was over 100 µM. For the same compound, the TGI (SN12C renal) was over 100 µM, the TGI (KM12 colon) was over 100 µM and the TGI (HT29 colon) was over 100 µM. It also gave a TGI (HCC-2998 colon) of over 100 µM, a TGI (PC-3 prostate) of over 100 µM and a TGI (SK-MEL-28 melanoma) of over 100 µM. For the same compound, the TGI (OVCAR-4 ovarian) was over 100 µM, the TGI (RPMI-8226 leukemia) was over 100 µM and the TGI (MALME-3M melanoma) was over 100 µM. It also gave a TGI (SW-620 colon) of over 100 µM, a TGI (SK-MEL-2 melanoma) of over 100 µM and a TGI (MDA-N) of over 100 µM. For the same compound, the TGI (OVCAR-5 ovarian) was over 100 µM, the TGI (NCI-H23 lung) was over 100 µM and the TGI (UACC-257 melanoma) was over 100 µM. The TGI (IGROV1 ovarian) was over 100 µM, the TGI (OVCAR-3 ovarian) was over 100 µM and the TGI (SNB-19 CNS) was over 100 µM. It also gave a TGI (T-47D breast) of over 100 µM, a TGI (NCI/ADR-RES ovarian) of over 100 µM and a TGI (SF-268 CNS) of over 100 µM. It also gave a TGI (SK-MEL-5 melanoma) of over 100 µM, a TGI (EKVX NSCLC) of over 100 µM and a TGI (OVCAR-8 ovarian) of over 100 µM. For the same compound, the TGI (MDA-MB-231 breast) was over 100 µM and the TGI (MOLT-4 leukemia) was over 100 µM.
`CCOc1cc(/C=N\N(C)C)cc(/C=N\N(C)C)c1O` gave a TGI (CAKI-1 renal) of 46.8 µM, a TGI (NCI-H460 lung) of over 100 µM and a TGI (786-0 renal) of over 100 µM. The TGI (A549 NSCLC) was over 100 µM, the TGI (MDA-MB-435) was over 100 µM and the TGI (NCI-H226 lung) was over 100 µM. The TGI (SK-OV-3 ovarian) was over 100 µM, the TGI (TK-10 renal) was over 100 µM and the TGI (HS 578T breast) was over 100 µM. For the same compound, the TGI (SF-539 CNS) was 65.4 µM, the TGI (SR leukemia) was over 100 µM and the TGI (SNB-75 CNS) was 77.7 µM. The TGI (SF-295 CNS) was over 100 µM, the TGI (A498 renal) was over 100 µM and the TGI (UACC-62 melanoma) was over 100 µM. It also gave a TGI (CCRF-CEM leukemia) of over 100 µM, a TGI (ACHN renal) of 56 µM and a TGI (HOP-62 NSCLC) of over 100 µM. It also gave a TGI (K-562 leukemia) of over 100 µM, a TGI (LOX IMVI melanoma) of 79.5 µM and a TGI (COLO 205 colon) of 34.3 µM. It also gave a TGI (M14 melanoma) of over 100 µM, a TGI (HOP-92 NSCLC) of 49.7 µM and a TGI (DU-145 prostate) of over 100 µM. It also gave a TGI (HCT-116 colon) of over 100 µM, a TGI (HL-60(TB) leukemia) of over 100 µM and a TGI (HCT-15 colon) of over 100 µM. For the same compound, the TGI (U251 CNS) was 89.9 µM, the TGI (UO-31 renal) was over 100 µM and the TGI (SN12C renal) was over 100 µM. For the same compound, the TGI (KM12 colon) was over 100 µM, the TGI (HT29 colon) was over 100 µM and the TGI (HCC-2998 colon) was over 100 µM. For the same compound, the TGI (PC-3 prostate) was over 100 µM, the TGI (SK-MEL-28 melanoma) was over 100 µM and the TGI (OVCAR-4 ovarian) was over 100 µM. The TGI (RPMI-8226 leukemia) was over 100 µM, the TGI (MALME-3M melanoma) was over 100 µM and the TGI (SW-620 colon) was over 100 µM. The TGI (SK-MEL-2 melanoma) was 77 µM, the TGI (MDA-N) was over 100 µM and the TGI (OVCAR-5 ovarian) was over 100 µM. It also gave a TGI (NCI-H23 lung) of over 100 µM, a TGI (UACC-257 melanoma) of over 100 µM and a TGI (OVCAR-3 ovarian) of over 100 µM. It also gave a TGI (SNB-19 CNS) of over 100 µM, a TGI (T-47D breast) of over 100 µM and a TGI (NCI/ADR-RES ovarian) of over 100 µM. It also gave a TGI (SF-268 CNS) of 61.2 µM, a TGI (SK-MEL-5 melanoma) of 73.2 µM and a TGI (EKVX NSCLC) of over 100 µM. The TGI (OVCAR-8 ovarian) was 56.2 µM, the TGI (MDA-MB-231 breast) was over 100 µM and the TGI (MOLT-4 leukemia) was over 100 µM.

Source: PubChem BioAssay (NCI)
